{
  "source": "ChEMBL document CHEMBL1130671",
  "about": "“beta Gal(1-->S-4)beta GlcNac--OR: a galactosidase-stable substrate for alpha(1-->3)fucosyltransferase” (Bioorg Med Chem Lett, 1998)",
  "key": {"Homo sapiens [1]": {"species": "Homo sapiens", "test": "Potency against purified human milk alpha(1,3/4) fucosyltransferase; IA inactive"}, "Homo sapiens [2]": {"species": "Homo sapiens", "test": "Kinetic constant for purified human milk alpha(1,3/4) fucosyltransferase"}},
  "note": "Activity calls are given as the source filed them. The calls are words filed in the database; no cut-off is given here.",
  "data": [
    {"smiles": "COC(=O)CCCCCCCCOC1OC(CO)C(OC2SC(CO)C(O)C(O)C2O)C(O)C1NC(C)=O", "note": "(configuration not stated)", "values": [
      {"measurement": "Potency", "setting": "Homo sapiens [1]", "result": "inactive"}
    ]},
    {"smiles": "COC(=O)CCCCCCCCOC1OC(CO)C(SC2OC(CO)C(O)C(O)C2O)C(O)C1NC(C)=O", "note": "(configuration not stated)", "values": [
      {"measurement": "Km", "setting": "Homo sapiens [2]", "result": 230, "unit": "µM"}
    ]}
  ]
}
